Reference: patent US6365753B1, “Phthalimides and herbicide containing the same as active component” (Mitsubishi Chemical Corporation, priority 1998, dated 2002)

How the values were obtained:
Format in all cases: in vivo
[1] = test system: Brassica juncea; experiment: Foliar treatment test (1) post-emergence application; conditions: foliar treatment post-emergence at 1.0- to 2.0-leaf stage, 10 g/a active ingredient, 21st day from treatment; herbicidal index; also: ranges in brackets are in %
Experimental: (§1) Volcanic ash soil from a field was put in a resin-made pot having an area of 200 cm^2. After fertilization, the seeds of Brassica juncea, Ipomoea purpurea, Echinochloa crus-galli and Alopeculus aequalis were cast on the soil and uniformly covered with the soil.
(§2) Cultivation was continued in a greenhouse, and when the weeds reached the 1.0- to 2.0-leaf stage, a prescribed amount of the emulsifiable concentrate comprising the compound of the invention as an active ingredient which was prepared in Formulation Example 3 as diluted with water was sprayed uniformly to the weeds by means of a small-sized power pressure spray to give 10 g of the active ingredient per are.
(§3) Thereafter, cultivation was further continued in the greenhouse, and the herbicidal effect was examined on the 21st day from the treatment. The results obtained are shown in Table 6 (the compound numbers in Table 6 correspond to those in Tables 1 and 2). The herbicidal effect was evaluated based on the same criteria as in Test Example 1.

[2] = test system: Alopeculus aequalis; experiment: as above; conditions: foliar treatment post-emergence at 1.0- to 2.0-leaf stage, 10 g/a active ingredient, 21st day from treatment; herbicidal index; also: ranges in brackets are in %
Experimental: as §1, §2, §3

[3] = test system: Echinochloa crus-galli; experiment: as above; conditions: foliar treatment post-emergence at 1.0- to 2.0-leaf stage, 10 g/a active ingredient, 21st day from treatment; herbicidal index
Experimental: as §1, §2, §3

[4] = test system: Ipomoea purpurea; experiment: as above; conditions: foliar treatment post-emergence at 1.0- to 2.0-leaf stage, 10 g/a active ingredient, 21st day from treatment; herbicidal index; also: ranges in brackets are in %
Experimental: as §1, §2, §3

[5] = test system: Setaria viridis; experiment: Soil treatment test pre-emergence application; conditions: 10 g/a active ingredient, 28th day from treatment, herbicidal index; also: ranges in brackets are in %
Experimental: (§4) Volcanic ash soil from a field was put in a resin-made pot having an area of 200 cm^2. After fertilization, soil previously mixed uniformly with the seeds of Digitaria ciliaris, Setaria viridis, Chenopodium album and Polygonum lapathifolium was scattered on the soil. The emulsifiable concentrate comprising the compound of the invention as an active ingredient which was obtained in Formulation Example 3 was diluted with water, and a prescribed amount of the diluted composition was sprayed uniformly to the surface of the soil by means of a small-sized power pressure spray to give 10 g of the active ingredient per are.
as §3, with “was” for “was further”, “in a” for “in the”, “the 28th” for “the 21st”, “Table 5” for “Table 6”

[6] = test system: Digitaria ciliaris; experiment: Soil treatment test pre-emergence application; conditions: 10 g/a active ingredient, 28th day from treatment, herbicidal index; also: ranges in brackets are in %
Experimental: as §4
as §3, with “was” for “was further”, “in a” for “in the”, “the 28th” for “the 21st”, “Table 5” for “Table 6”

[7] = test system: Chenopodium album; experiment: Soil treatment test pre-emergence application; conditions: 10 g/a active ingredient, 28th day from treatment, herbicidal index; also: ranges in brackets are in %
Experimental: as §4
as §3, with “was” for “was further”, “in a” for “in the”, “the 28th” for “the 21st”, “Table 5” for “Table 6”

[8] = test system: Polygonum lapathifolium; experiment: Soil treatment test pre-emergence application; conditions: 10 g/a active ingredient, 28th day from treatment, herbicidal index; also: ranges in brackets are in %
Experimental: as §4
as §3, with “was” for “was further”, “in a” for “in the”, “the 28th” for “the 21st”, “Table 5” for “Table 6”

[9] = test system: Brassica juncea; experiment: Foliar treatment test (3) post emergence application; conditions: 3.0 to 4.0-leaf stage, 0.125% X-77, 21st day, index
Experimental: (§5) Volcanic ash soil from a field was put in a resin-made pot having an area of 200 cm^2. After fertilization, the seeds of Galim spurium, Brassica juncea, and wheat were cast on the soil and covered with the soil uniformly. Cultivation was continued in a greenhouse until the plants reached to the 3.0 to 4.0-leaf stage.
(§6) The emulsifiable concentrate comprising compound No. 5 of the present invention, comparative compound (B) or comparative compound (C) as an active ingredient which was prepared in accordance with Formulation Example 3 was diluted with water containing 0.125% of a spreading agent X-77 (trade name, Valent USA Co.) so that a spray of 250 L/ha might give a prescribed amount of the active ingredient. The diluted composition was uniformly sprayed to the Galium spurium plant, the Brassica juncea plant, and the wheat plant by means of a small-sized power pressure spray.
(§7) Thereafter, cultivation was continued in the greenhouse, and the herbicidal effect and the injury to the crop were examined on the 21st day from the treatment. The herbicidal effect and the injury to the crop were evaluated on the same criteria as in Test Example 4.

[10] = test system: Galium spurium; experiment: as above; conditions: 3.0 to 4.0-leaf stage, 0.125% X-77, 21st day, index
Experimental: as §5, §6, §7

[11] = test system: Monochoria vaginalis; experiment: Submerged treatment test; conditions: 10 g/a active ingredient, treated 5th day from sowing, examined on the 2.8th day from treatment, herbicidal index; also: ranges in brackets are in %
Experimental: (§8) Alluvial soil from a paddy field was put in a resin-made pot having an area of 200 cm^2. After fertilization, an adequate amount of water was added, and the soil was puddled and leveled. Seeds of Echinochloa crus-galli, Monochoria vaginalis, Rotala indica and Scirpus juncoides were sowed within a layer 0.5 cm below the surface of the soil. Water was poured onto the soil to keep a water depth of 3.5 cm.
(§9) On the 5th day from the sowing, the emulsifiable concentrate containing the compound of the invention as an active ingredient which was prepared in Formulation Example 3 was diluted with water. A prescribed amount of the diluted composition was dropped to the water so as to give 10 g of the active ingredient per are.
(§10) Cultivation was continued in a greenhouse, and the herbicidal effect was examined on the […] from the treatment. The results obtained are shown in Table 4 (the compound numbers in Table 4 correspond to those in Tables 1 and 2). The herbicidal effect was evaluated in terms of herbicidal index based on Y(%) obtained from equation:
(§11) y=[1−(Weight of weeds above the ground in a treated pot)/(Weight of weeds above the ground in a non-treated pot)]×100 (%)

[12] = test system: Scirpus juncoides; experiment: Submerged treatment test; conditions: 10 g/a active ingredient, treated 5th day from sowing, examined on the 2.8th day from treatment, herbicidal index; also: ranges in brackets are in %
Experimental: as §8, §9, §10, §11

[13] = test system: Echinochloa crus-galli; experiment: Submerged treatment test; conditions: 10 g/a active ingredient, treated 5th day from sowing, examined on the 2.8th day from treatment, herbicidal index; also: ranges in brackets are in %
Experimental: as §8, §9, §10, §11

[14] = test system: Rotala indica; experiment: Submerged treatment test; conditions: 10 g/a active ingredient, treated 5th day from sowing, examined on the 2.8th day from treatment, herbicidal index; also: ranges in brackets are in %
Experimental: as §8, §9, §10, §11

[15] = test system: wheat; experiment: Foliar treatment test (3) post emergence application, crop injury; conditions: 3.0 to 4.0-leaf stage, 0.125% X-77, 21st day, index
Experimental: as §5, §6, §7
For Herbicidal Effect Echinochloa crus-galli in this document: ranges in brackets are in %.

CCCNC(=O)C(Cl)Cc1cc(N2C(=O)c3ccccc3C2=O)c(F)cc1Cl (centres unmarked) [Compound 10, 2-Chloro-3-(2-chloro-4-fluoro-5-phthalimidophenyl)-N-propylpropionamide]
Herbicidal Effect Brassica juncea [1]: 5 (91-100) | Herbicidal Effect Alopeculus sequalis [2]: 3 (51-70) | Herbicidal Effect Echinochloa crus-galli [3]: 4 (71-90) | Herbicidal Effect Ipompoea-purpurea [4]: 5 (91-100)

COC(=O)C=Cc1cc(N2C(=O)c3ccccc3C2=O)c(F)cc1Cl [Compound 16]
Herbicidal Effect Brassica juncea [1]: 5 (91-100) | Herbicidal Effect Alopeculus sequalis [2]: 1 (6-30) | Herbicidal Effect Echinochloa crus-galli [3]: 3 (51-70) | Herbicidal Effect Ipompoea-purpurea [4]: 5 (91-100)

O=C(O)C(Cl)Cc1cc(N2C(=O)c3ccccc3C2=O)c(F)cc1Cl (centres unmarked) [Compound 3, 2-Chloro-3-(2-chloro-4-fluoro-5-pthalimidophenyl)propionic Acid]
Herbicidal Effect Brassica juncea [1]: 5 (91-100) | Herbicidal Effect Alopeculus sequalis [2]: 1 (6-30) | Herbicidal Effect Echinochloa crus-galli [3]: 1 (6-30) | Herbicidal Effect Ipompoea-purpurea [4]: 5 (91-100) | Herbicidal Effect Setaria viridis [5]: 0 (0-5) | Herbicidal Effect Digitaria ciliaris [6]: 0 (0-5) | Herbicidal Effect Chenopodium album [7]: 5 (91-100) | Herbicidal Effect Polygonum lapathifolium [8]: 5 (91-100)

CCOC(=O)C(Cl)Cc1cc(N2C(=O)c3ccccc3C2=O)c(F)cc1Cl (centres unmarked) [Compound 5, ethyl 2-chloro-3-(2-chloro-4-fluoro-5-phthalimidophenyl)propionate]
Herbicidal Effect Brassica juncea ([9]; 12.5 ga.i./ha): 10 (100) | Herbicidal Effect Brassica juncea ([9]; 25.0 ga.i./ha): 10 (100) | Herbicidal Effect Brassica juncea ([9]; 50.0 ga.i./ha): 10 (100) | Herbicidal Effect Galium spurium ([10]; 12.5 ga.i./ha): 10 (100) | Herbicidal Effect Galium spurium ([10]; 25.0 ga.i./ha): 10 (100) | Herbicidal Effect Galium spurium ([10]; 50.0 ga.i./ha): 10 (100) | Herbicidal Effect Monochoria vaginalis [11]: 5 (91-100) | Herbicidal Effect Scirpus juncoides [12]: 4 (71-90) | Herbicidal Effect Echinochloa crus-galli [13]: 4 (71-90) | Herbicidal Effect Rotala indica [14]: 5 (91-100) | Herbicidal Effect Brassica juncea [1]: 5 (91-100) | Herbicidal Effect Alopeculus sequalis [2]: 1 (6-30) | Herbicidal Effect Echinochloa crus-galli [3]: 3 (51-70) | Herbicidal Effect Ipompoea-purpurea [4]: 5 (91-100) | Crop Injury Wheat ([15]; 12.5 ga.i./ha): 0 (0) | Crop Injury Wheat ([15]; 25.0 ga.i./ha): 0 (0) | Crop Injury Wheat ([15]; 50.0 ga.i./ha): 1 (1-9)

CCOC(=O)C(Cl)Cc1cc(-n2nc(C)n(C(F)F)c2=O)c(F)cc1Cl (centres unmarked) [Comparative Compound (C), Carfentrazone-ethyl]
Herbicidal Effect Brassica juncea ([9]; 12.5 ga.i./ha): 9 (90-99) | Herbicidal Effect Brassica juncea ([9]; 25.0 ga.i./ha): 10 (100) | Herbicidal Effect Brassica juncea ([9]; 50.0 ga.i./ha): 10 (100) | Herbicidal Effect Galium spurium ([10]; 12.5 ga.i./ha): 10 (100) | Herbicidal Effect Galium spurium ([10]; 25.0 ga.i./ha): 10 (100) | Herbicidal Effect Galium spurium ([10]; 50.0 ga.i./ha): 10 (100) | Crop Injury Wheat ([15]; 12.5 ga.i./ha): 3 (20-29) | Crop Injury Wheat ([15]; 25.0 ga.i./ha): 4 (30-39) | Crop Injury Wheat ([15]; 50.0 ga.i./ha): 6 (60-69)

COC(=O)C(Cl)Cc1cc(N2C(=O)c3ccccc3C2=O)c(F)cc1Cl (centres unmarked) [Compound 4, Methyl 2-Chloro-3-(2-chloro-4-fluoro-5-phthalimidophenyl)propionate]
Herbicidal Effect Brassica juncea [1]: 5 (91-100) | Herbicidal Effect Alopeculus sequalis [2]: 1 (6-30) | Herbicidal Effect Echinochloa crus-galli [3]: 2 (31-50) | Herbicidal Effect Ipompoea-purpurea [4]: 5 (91-100) | Herbicidal Effect Setaria viridis [5]: 0 (0-5) | Herbicidal Effect Digitaria ciliaris [6]: 0 (0-5) | Herbicidal Effect Chenopodium album [7]: 5 (91-100) | Herbicidal Effect Polygonum lapathifolium [8]: 5 (91-100)

COC(=O)C(Cl)Cc1cc(N2C(=O)c3ccc(F)cc3C2=O)ccc1Cl (centres unmarked) [Compound 2]
Herbicidal Effect Brassica juncea [1]: 5 (91-100) | Herbicidal Effect Alopeculus sequalis [2]: 1 (6-30) | Herbicidal Effect Echinochloa crus-galli [3]: 2 (31-50) | Herbicidal Effect Ipompoea-purpurea [4]: 5 (91-100)

COC(=O)C(Cl)Cc1cc(N2C(=O)c3ccccc3C2=O)ccc1Cl (centres unmarked) [Compound 1]
Herbicidal Effect Brassica juncea [1]: 5 (91-100) | Herbicidal Effect Alopeculus sequalis [2]: 1 (6-30) | Herbicidal Effect Echinochloa crus-galli [3]: 1 (6-30) | Herbicidal Effect Ipompoea-purpurea [4]: 5 (91-100)

CC(C)CNC(=O)C(Cl)Cc1cc(N2C(=O)c3ccccc3C2=O)c(F)cc1Cl (centres unmarked) [Compound 11]
Herbicidal Effect Brassica juncea [1]: 5 (91-100) | Herbicidal Effect Alopeculus sequalis [2]: 4 (71-90) | Herbicidal Effect Echinochloa crus-galli [3]: 4 (71-90) | Herbicidal Effect Ipompoea-purpurea [4]: 5 (91-100) | Herbicidal Effect Setaria viridis [5]: 4 (71-90) | Herbicidal Effect Digitaria ciliaris [6]: 4 (71-90) | Herbicidal Effect Chenopodium album [7]: 5 (91-100) | Herbicidal Effect Polygonum lapathifolium [8]: 5 (91-100)

CCO/N=C(/COc1cc(N2C(=O)c3ccccc3C2=O)c(F)cc1Cl)C(=O)OCC [Comparative Compound (B)]
Herbicidal Effect Brassica juncea ([9]; 12.5 ga.i./ha): 9 (90-99) | Herbicidal Effect Brassica juncea ([9]; 25.0 ga.i./ha): 10 (100) | Herbicidal Effect Brassica juncea ([9]; 50.0 ga.i./ha): 10 (100) | Herbicidal Effect Galium spurium ([10]; 12.5 ga.i./ha): 9 (90-99) | Herbicidal Effect Galium spurium ([10]; 25.0 ga.i./ha): 9 (90-99) | Herbicidal Effect Galium spurium ([10]; 50.0 ga.i./ha): 10 (100) | Crop Injury Wheat ([15]; 12.5 ga.i./ha): 3 (20-29) | Crop Injury Wheat ([15]; 25.0 ga.i./ha): 3 (20-29) | Crop Injury Wheat ([15]; 50.0 ga.i./ha): 4 (30-39)

O=C(OC1CCCC1)C(Cl)Cc1cc(N2C(=O)c3ccccc3C2=O)c(F)cc1Cl (centres unmarked) [Compound 9]
Herbicidal Effect Monochoria vaginalis [11]: 5 (91-100) | Herbicidal Effect Scirpus juncoides [12]: 5 (91-100) | Herbicidal Effect Echinochloa crus-galli [13]: 5 (91-100) | Herbicidal Effect Rotala indica [14]: 5 (91-100) | Herbicidal Effect Brassica juncea [1]: 5 (91-100) | Herbicidal Effect Alopeculus sequalis [2]: 1 (6-30) | Herbicidal Effect Echinochloa crus-galli [3]: 2 (31-50) | Herbicidal Effect Ipompoea-purpurea [4]: 5 (91-100)

CCCCOC(=O)C(Cl)Cc1cc(N2C(=O)c3ccccc3C2=O)c(F)cc1Cl (centres unmarked) [Compound 8]
Herbicidal Effect Monochoria vaginalis [11]: 5 (91-100) | Herbicidal Effect Scirpus juncoides [12]: 5 (91-100) | Herbicidal Effect Echinochloa crus-galli [13]: 5 (91-100) | Herbicidal Effect Rotala indica [14]: 5 (91-100) | Herbicidal Effect Brassica juncea [1]: 5 (91-100) | Herbicidal Effect Alopeculus sequalis [2]: 1 (6-30) | Herbicidal Effect Echinochloa crus-galli [3]: 1 (6-30) | Herbicidal Effect Ipompoea-purpurea [4]: 5 (91-100)

CCOC(=O)/C=C/c1cc(N2C(=O)c3ccccc3C2=O)c(F)cc1Cl [Compound 17, Ethyl 3-(2-Chloro-4-fluoro-5-phthalimidophenyl)acrylate]
Herbicidal Effect Brassica juncea [1]: 5 (91-100) | Herbicidal Effect Alopeculus sequalis [2]: 1 (6-30) | Herbicidal Effect Echinochloa crus-galli [3]: 1 (6-30) | Herbicidal Effect Ipompoea-purpurea [4]: 5 (91-100)
